# Test results reported in PubChem BioAssay AID652241 (Broad Institute, 2013).
# Results filed as inconclusive are left out. The source made the active and inactive calls.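 The calls were made as follows: active = fitted curve reaches activity 50 in the expected rising direction at or below the top valid tested dose; inconclusive = no clear call, values can overlap the other calls; inactive = activity in the wrong direction, and the rest.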
# Target: Virion infectivity factor (Human immunodeficiency virus type 1 group M subtype B (isolate BH10)) + Virion infectivity factor (Human immunodeficiency virus type 1 group M subtype B (isolate BRU/LAI)) + Virion infectivity factor (Human immunodeficiency virus type 1 group M subtype B (isolate PCV12)) + Virion infectivity factor (Human immunodeficiency virus type 1 group M subtype B (isolate HXB2)) (UniProt P69720+P69721+P69722+P69723)
# Assay: Vif multimerization inhibitor potency, dose response, imaging, HEK293T, cherry-picks (AID 652241);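 also: imaged cell signal that rises when Vif self-association is disrupted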
# Conditions: 24 h
row,Compound,AC50
1,CCN(CC)C(=O)c1sc2nc(-c3cccs3)cc(-c3cccs3)c2c1N,> 19.5 µM (inactive)
2,CCc1ccc(S(=O)(=O)Nc2ccc(-c3ccc4nnc(C)n4n3)cc2)s1,11.4 µM
3,C=CCn1c(O)c(C2=c3ccccc3=NC2=O)s/c1=N/c1nccs1,> 19.5 µM (inactive)
4,NC(CCc1ccccc1)c1csc(Nc2ccc(C(=O)c3ccccc3)cc2)n1 (centres undefined),10.2 µM
5,COc1ccc2nc(N3C(=O)C(O)=C(C(=O)c4ccco4)C3c3ccccc3OC)sc2c1 (centres undefined),> 19.5 µM (inactive)
6,COc1ccc(-c2cc(-c3nc4ccccn4c3NCc3ccccc3)ccc2OC)cc1,3.66 µM
7,COc1ccc(-c2cc(C(F)(F)F)n3nc(C(=O)NCc4ccco4)c(Cl)c3n2)cc1,8.52 µM
8,Cc1cc2cc(C#N)c(SCC(=O)Nc3nonc3C)nc2cc1C,8.45 µM
9,C=CCNc1ncnc2c1ncn2C1OC(CO)C(O)C1O (centres undefined),5.47 µM
10,COc1ccc(/C=C/C(=O)c2cc(F)ccc2OC(=O)c2ccccc2OC)cc1OC,1.33 µM
11,Cc1ccc(NC(=O)/C=C/c2ccco2)nc1,8.31 µM
12,O=C(COc1ccc(-n2cnnn2)cc1)Nc1cc(Cl)cc(Cl)c1,12.1 µM
13,COC(=O)c1ccc(NCc2cc(O)ccc2O)cc1,5.96 µM
14,CCc1ccc2[nH]c3nc(SCC(=O)NNC(=O)c4ccc(C(C)(C)C)cc4)nnc3c2c1,7.22 µM
15,COc1cc(C2C3=C(COC3=O)Oc3cc4c(cc32)OCO4)cc(OC)c1O (centres undefined),0.849 µM
16,Cc1ccc2c(COC(=O)c3ccccc3OC(F)F)cc(=O)oc2c1,12 µM
17,Cc1cc(Cl)n2c(nc3cc(F)c(F)cc32)c1C#N,5.68 µM
18,COc1cc(C2c3cc4c(cc3CC3COC(=O)C32)OCO4)cc(OC)c1OC (centres undefined),9.81 µM
19,Cc1cc(C)cc(NC(=O)CCc2nc3sc4c(c3c(=O)[nH]2)CCCC4)c1,14.6 µM
20,CCOc1cc(/C=C2\CN(CC)C/C(=C\c3ccc(O)c(OCC)c3)C2=O)ccc1O,7.26 µM
21,Cc1nnc2ccc(-c3ccc(NS(=O)(=O)c4ccc(Cl)s4)cc3)nn12,14.5 µM
22,COC(=O)c1ccc(NCc2cc(O)ccc2O)cc1O,10.9 µM
23,CCN(CC)C1Oc2cc3c(cc2C(c2cc(OC)c(OC)c(OC)c2)C1C)OCO3 (centres undefined),6.24 µM
24,COc1cc(-c2cc(=O)c3c(O)c(OC)c(OC)c(O)c3o2)ccc1O,> 19.5 µM (inactive)

# Same assay, conditions: 24 h, at 2.1 µM (top of the series)
row,Compound,"activity, higher = inhibition"
1,Cc1nc(NC(=O)C(C)Oc2cccc(Cl)c2)sc1C(=O)N(C)C (centres undefined),inactive

# Same assay, conditions: 24 h, at 6.8 µM (top of the series)
row,Compound,"activity, higher = inhibition"
1,O=C(Nc1ccc2oc(-c3ccc4ccccc4c3)nc2c1)c1cccs1,inactive
2,COc1ccc(OC)c(/C=C/c2nc3ccccc3[nH]c2=O)c1,inactive
3,CCc1cccc2cc3c(N)c(C(=O)Nc4ccc(S(=O)(=O)N5CCCC5)cc4)sc3nc12,inactive

# Same assay, conditions: 24 h, at 19.5 µM (top of the series)
row,Compound,"activity, higher = inhibition"
1,O=C(CCNC(=O)c1ccco1)Nc1ccc(OC(F)(F)F)cc1,inactive
2,O=C(CSc1ncccn1)NC(=O)Nc1ccc2c(c1)OCCO2,inactive
3,CCOC(=O)C[C@@H](C#N)NC(=O)[C@@H]1CCCN1C(=O)[C@@H](NC(=O)c1ccc(N)c(Cl)c1)C(C)(C)C,inactive
4,CCOC(=O)C1=C(C)NC(=O)NC1,inactive
5,Cc1ccc(N(C)S(=O)(=O)c2ccc(-c3ccc(=O)[nH]n3)s2)cc1C,inactive
6,CCN1CCN(c2cc(=O)n(-c3cc(Cl)ccc3C)c(=O)[nH]2)CC1,inactive
7,COC(CNC(=O)C1CCN(C(=O)c2cc3oc(C)cc3n2Cc2c(F)cccc2Cl)CC1)OC,inactive
8,COc1ccc(C(=O)Nc2cc(OC)c(NC(=O)Nc3ccccc3)cc2OC)cc1,inactive
9,O=c1[nH]c(=O)n(Cc2ccco2)c2c1C(C(F)(F)F)(C(F)(F)F)N=C(c1ccco1)N2,inactive
10,CCN(CC)C(=O)c1ccc(C(=O)c2c(C)cc(C)cc2C)cc1,inactive
11,O=C(Nc1ccnc(-c2cccnc2)n1)c1cccs1,inactive
12,CN1CCN(C(=S)c2ccc(OCC(=O)Nc3cccc(C(F)(F)F)c3)cc2)CC1,inactive
13,CCC(C)NC(=O)Cn1c(=O)n(-c2ccccc2)c(=O)c2ccc(C(=O)NCc3ccco3)cc21 (centres undefined),inactive
14,COCc1cc(C)nc(SCC(=O)Nc2cccc3cccnc23)c1C#N,inactive
15,Cc1ccc(Nc2nc(N)nc(CSc3nnc(-c4ccncc4)o3)n2)cc1,inactive
16,COc1cc(NC(=O)NCc2ccco2)ccc1-c1ccc(NC(=O)NCc2ccco2)cc1OC,inactive
17,Cc1cc(S(=O)(=O)N2CCOCC2)ccc1OCC(=O)NCCN1CCOCC1,inactive
18,CC(C)CC(=O)Nc1ccc(-c2nnn(CC(=O)NCc3ccco3)n2)cc1,inactive
19,CCCOc1ccc(C(O)(CCC)CCN2CCCCC2)cc1 (centres undefined),inactive
20,COc1cc(NC(=O)c2ccc(C)cc2C)ccc1NC(=O)c1cccs1,inactive
21,CCN(C(=O)COc1ccc(C)cc1OC)c1cccc2ccccc12,inactive
22,Cc1nc(-c2ccccc2OC(F)(F)F)[nH]c(=O)c1Cl,inactive

row,Compound,"activity, higher = inhibition"
1,O=C(c1ccc(Cl)c(Cl)c1)N(Cc1ccco1)c1ccc(O)cc1,inactive
2,COc1ccccc1NC(=O)c1ccccc1NC(=O)c1ccccn1,inactive
3,Cc1ccc(C(C)C)c(OCC#CCN2CCOCC2)c1,inactive
4,CSc1ccc(CN(C)CC(=O)NCCc2ccccc2)cc1,inactive
5,Cc1ccc(-n2c(SCC(=O)Nc3ccc4c(c3)OCO4)nnc2-c2cccs2)cc1,inactive
6,O=C1c2ccccc2C(Nc2ccc(S(=O)(=O)N3CCOCC3)cc2)N1c1ccccn1 (centres undefined),inactive
7,NS(=O)(=O)c1ccc(-c2ccc(/C=C3\SC(=O)NC3=O)o2)cc1,inactive
8,NS(=O)(=O)c1ccc(NC(=O)CCC(=O)N2CCOCC2)cc1,inactive
9,CN1CCc2c(sc(NC(=O)c3cc(Cl)sc3Cl)c2C(N)=O)C1,inactive
10,S=C(Nc1ccccc1)N1CCn2c(nc3ccccc32)C1,inactive
11,CCCn1c(=N)c(C(=O)NCc2ccc3c(c2)OCO3)cc2c(=O)n3cccc(C)c3nc21,inactive
12,CC(C)C(=O)N=C1SC2CS(=O)(=O)CC2N1Cc1ccccc1 (centres undefined),inactive
13,COc1cc(/C=C/C(=O)O)ccc1S(=O)(=O)N1CCCc2ccccc21,inactive
14,COc1cc2[nH]c(=O)n(CCCC(=O)NC3CCCCC3)c(=O)c2cc1OC,inactive
15,COC(=O)N1C(=O)[C@](c2ccc(Cl)cc2)(C(C)C)N1C(=O)OC,inactive
16,Cc1nn2c(COc3ccc(NC(=O)c4ccccc4Cl)cc3)nnc2c2ccccc12,inactive
17,COc1ccc(Br)cc1C(=O)Nc1ccc(N2CCCC2)cc1,inactive
18,COc1ccccc1Nc1nnc(C)c(=O)[nH]1,inactive
19,CC(C)CN1C(=O)C(=O)N(CC(=O)c2ccc3c(c2)OCO3)C1=O,inactive
20,CC(=O)Nc1cc(NC(=O)C2C3C=CC(C3)C2C(=O)O)ccc1Cl (centres undefined),inactive
21,S=C(NC1CC1)N1CCc2ccccc2C1,inactive
22,Cc1ccc2c(c1)C1CN(C)CCC1N2S(=O)(=O)c1cccc(C(F)(F)F)c1 (centres undefined),inactive

row,Compound,"activity, higher = inhibition"
1,CN1CCc2nc3ccc(F)cc3c(C(N)=O)c2C1,inactive
2,CCn1c(SCc2nc3ccccc3c(=O)[nH]2)nc2ccccc2c1=O,inactive
3,CCn1cc(CN2CCCC(C(=O)Nc3cccc(-c4cc5ccccc5[nH]4)c3)C2)c(C)n1 (centres undefined),inactive
4,CC(O)CN(C)CC/C=C1/c2ccccc2CSc2ccccc21 (centres undefined),inactive
5,O=C(O)c1ccc(S(=O)(=O)c2ccc3c(c2)C(=O)N(c2ccc(Br)cc2)C3=O)cc1,inactive
6,CCn1c(CC(=O)Nc2ccccc2)nnc1SCC(=O)Nc1nnc(C)s1,inactive
7,N#CC(C(=O)NCCc1ccccc1)c1nc2ccccc2nc1N1CCOCC1 (centres undefined),inactive
8,COc1c2ccoc2nc2c(OC)c(OC[C@@H](O)C(C)(C)O)ccc12,inactive
9,OC(CNCc1ccccc1Cl)COc1ccc(F)cc1 (centres undefined),inactive
10,CCCCOc1cccc2c(=O)n(CC(=O)Nc3ccc4c(c3)OCCO4)ccc12,inactive
11,COc1ccc(-c2csc(-c3cccnc3)n2)cc1C,inactive
12,O=C(CN(C(=O)c1csnn1)c1ccc(F)cc1)NCc1ccc2c(c1)OCO2,inactive
13,COc1ccc2c(CC(=O)Nc3ccccc3OC)coc2c1,inactive
14,CCCn1nnc(NC(=O)C(c2ccccc2)c2ccccc2)n1,inactive
15,COc1ccc(C(=O)NCc2oc(-c3ccccc3)cc2C(=O)O)cc1,inactive
16,C[C@@H]1CN([C@H](C)CO)C(=O)CCCn2cc(nn2)CO[C@H]1CN(C)C(=O)c1ccccc1,inactive
17,COc1ccc(CCNC(=O)[C@@H](NC(N)=O)C(C)C)cc1,inactive
18,CCOc1ccc(CC(=O)Nc2sc(Cc3ccccc3)c(C)c2C(N)=O)cc1OCC,inactive
19,Cc1cc(NC(=O)CSc2nc3ccccc3c(=O)n2-c2ccccc2)no1,inactive
20,COc1ccc(NC(=O)Cn2nnc(C(=O)Nc3ccccc3C)c2N)cc1,inactive
21,CCOC(=O)C1CCCN(C(=O)c2cc(S(=O)(=O)N(C)C)ccc2N2CCCC2)C1 (centres undefined),inactive
22,N#Cc1c2ccc(OCC(N)=O)cc2n2ccccc12,inactive
